Data on five compounds can be found in ChEMBL document CHEMBL1126378, “Substrate selectivity of imidazole-appended dimethyl--cyclodextrin” (Bioorg Med Chem Lett, 1992).

The structures appear in SMILES notation.

In general, Km refers to the concentration of substrate that gives half-maximal velocity.

Assay [1] can be described thus: Ratio of kcat and Km was determined.
Assay [2] can be described thus: Ratio of kcat and kun was determined.
The nature of assay [3]: Kinetic parameter Km for hydrolysis at 25 degrees Celsius using phosphate buffer in reaction with 3-[2-(4-imidazolyl)ethyl] […].
The nature of assay [4]: Kinetic parameter Kun for hydrolysis at 25 degrees Celsius using phosphate buffer in reaction with 3-[2-(4-imidazolyl)ethyl] […].
Assay [5] can be described thus: Kinetic parameter kcat for hydrolysis at 25 degrees Celsius using phosphate buffer in reaction with 3-[2-(4-imidazolyl)ethyl] […].

`CC(C)(C)OC(=O)NCC(=O)Oc1ccc([N+](=O)[O-])cc1`: the k cat/Km in assay [1] is 80.5 M⁻¹ s⁻¹. For the same compound, the k cat/Kuncat in assay [2] worked out at 242. Further, the Michaelis-Menten constant (Km) in assay [3] stood at 387 µM. The Kun in assay [4] turned out to be 0.000129 s⁻¹. Further, the k cat in assay [5] worked out at 0.0312 s⁻¹.

Regarding `CC(=O)NC(C)C(=O)Oc1ccc([N+](=O)[O-])cc1` (stereo not given), the k cat/Km in assay [1] was found to be 27.5 M⁻¹ s⁻¹. Further, in assay [2], the k cat/Kuncat stood at 26. Besides, the Michaelis-Menten constant (Km) in assay [3] amounted to 1350 µM. Further, the Kun in assay [4] is 0.00144 s⁻¹. Moreover, in assay [5], the k cat is 0.0371 s⁻¹.

`CC(=O)NCC(=O)Oc1ccc([N+](=O)[O-])cc1`: in assay [1], the k cat/Km came out at 35.4 M⁻¹ s⁻¹. Further, the k cat/Kuncat in assay [2] is 92. Further, the Michaelis constant (Km) in assay [3] came to 1470 µM. The Kun in assay [4] is 0.000562 s⁻¹. Moreover, the k cat in assay [5] came to 0.0519 s⁻¹.

Consider `CC(=O)N[C@@H](Cc1ccccc1)C(=O)Oc1ccc([N+](=O)[O-])cc1`, for which the k cat/Km in assay [1] amounted to 73.9 M⁻¹ s⁻¹. Further, the k cat/Kuncat in assay [2] stood at 13. In addition, the Km in assay [3] was determined as 148 µM. The Kun in assay [4] was found to be 0.000861 s⁻¹. For the same compound, in assay [5], the k cat came to 0.011 s⁻¹.

As for `CC(=O)N[C@H](Cc1ccccc1)C(=O)Oc1ccc([N+](=O)[O-])cc1`, in assay [1], the k cat/Km was determined as 49.7 M⁻¹ s⁻¹. Also, in assay [2], the k cat/Kuncat was determined as 28. Besides, in assay [3], the Michaelis-Menten constant (Km) is 478 µM. In assay [4], the Kun stood at 0.000861 s⁻¹. In addition, in assay [5], the k cat was 0.0238 s⁻¹.
